Values of other authors as cited in patent US5707620A (priority 1995, dated 1998).

System: hemagglutinins
Conditions: cited from earlier work

Structure (SMILES)	inhibition of activity of hemagglutinins
NCCCC[C@H](N)C(=O)O [lysine]	to a lesser extent, lysine
N=C(N)NCCC[C@H](N)C(=O)O [arginine]	inhibited by arginine
